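A five-concentration, 48-hour dose response in 96-well plates underlies each endpoint, interpolated linearly between surrounding concentrations. GI50 is the concentration that inhibits growth by half.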 Active and inactive are the calls of the source. Rule as the data show it: active = GI50 up to about 1.1 µM and inactive = higher.
How the values were obtained:
Test in all cases: DTP human tumour cell line panel, 48 h
[1] = test system: NCI-H460
[2] = test system: SNB-75
[3] = test system: UACC-62
[4] = test system: SF-268
[5] = test system: Malme-3M
[6] = test system: NCI-H226
[7] = test system: EKVX
[8] = test system: IGROV-1
[9] = test system: SK-MEL-28
[10] = test system: UO-31
[11] = test system: COLO 205
[12] = test system: OVCAR-5
[13] = test system: ACHN
[14] = test system: SNB-78
[15] = test system: M14
[16] = test system: SK-OV-3
[17] = test system: DU-145
[18] = test system: BT-549
[19] = test system: MDA-N
[20] = test system: SK-MEL-2

Row | Structure (SMILES) | GI50 [1] | GI50 [2] | GI50 [3] | GI50 [4] | GI50 [5] | GI50 [6] | GI50 [7] | GI50 [8] | GI50 [9] | GI50 [10] | GI50 [11] | GI50 [12] | GI50 [13] | GI50 [14] | GI50 [15] | GI50 [16] | GI50 [17] | GI50 [18] | GI50 [19] | GI50 [20]
1 | c1ccc2c(c1)[nH]c1c[nH]c3c4cccnc4nc-3c12 | 21.5 µM (inactive) | 18.2 µM (inactive) | 15.1 µM (inactive) | 19.7 µM (inactive) | 25.6 µM (inactive) | 25.2 µM (inactive) | 19.9 µM (inactive) | 18.1 µM (inactive) | 21.2 µM (inactive) | 15.3 µM (inactive) | 15 µM (inactive) | 20.3 µM (inactive) | 11.3 µM (inactive) | 23.4 µM (inactive) | 15 µM (inactive) |  |  |  |  | 
2 | Cc1ccc(/C=C2\CCCCC2=O)cc1 | 80.9 µM (inactive) | 29.6 µM (inactive) | > 100 µM (inactive) | > 100 µM (inactive) |  |  | > 100 µM (inactive) | > 100 µM (inactive) | > 100 µM (inactive) | 78.9 µM (inactive) | > 100 µM (inactive) |  | 48.1 µM (inactive) | 73.6 µM (inactive) | 49.9 µM (inactive) | > 100 µM (inactive) |  |  |  | 
3 | COc1ccc(C(=O)C#Cc2cnc(OC)nc2OC)cc1 | 2.65 µM (inactive) | 2.22 µM (inactive) | 1.11 µM (active) | 2.74 µM (inactive) | 1.67 µM (inactive) | 1.47 µM (inactive) | 1.83 µM (inactive) | 1.45 µM (inactive) | 1.61 µM (inactive) | 1.29 µM (inactive) | 1.57 µM (inactive) | 1.64 µM (inactive) | 1.5 µM (inactive) |  | 1.36 µM (inactive) | 14.1 µM (inactive) | 2.31 µM (inactive) | 1.6 µM (inactive) | 1.58 µM (inactive) | 1.42 µM (inactive)
4 | OCCCCCCCCCCCOc1ccc(C2OCC3(CC=CCC3)CO2)cc1 (stereo not given) | 16.9 µM (inactive) | 11.8 µM (inactive) | 17.1 µM (inactive) | 17.9 µM (inactive) | 18.1 µM (inactive) | 16.6 µM (inactive) | 10.6 µM (inactive) | 16.1 µM (inactive) | 16.9 µM (inactive) | 17.5 µM (inactive) | 22 µM (inactive) | 19.3 µM (inactive) | 17.5 µM (inactive) |  | 11.1 µM (inactive) | 19.3 µM (inactive) | 16.2 µM (inactive) | 15 µM (inactive) | 15.9 µM (inactive) | 38.1 µM (inactive)
5 | O=C(O)c1ccc(C(=O)c2ccccc2)c(C(=O)O)c1 | > 100 µM (inactive) | > 100 µM (inactive) | > 100 µM (inactive) | > 100 µM (inactive) | > 100 µM (inactive) | > 100 µM (inactive) | > 100 µM (inactive) | > 100 µM (inactive) | > 100 µM (inactive) | > 100 µM (inactive) | > 100 µM (inactive) | > 100 µM (inactive) | > 100 µM (inactive) |  | > 100 µM (inactive) | > 100 µM (inactive) | > 100 µM (inactive) | > 100 µM (inactive) | > 100 µM (inactive) | > 100 µM (inactive)
6 | N#CC(C#N)=C1CCCCc2ccc([N+](=O)[O-])cc21 | > 100 µM (inactive) | > 100 µM (inactive) | > 100 µM (inactive) | > 100 µM (inactive) | > 100 µM (inactive) | > 100 µM (inactive) | 46.6 µM (inactive) | > 100 µM (inactive) | > 100 µM (inactive) | 92.9 µM (inactive) | > 100 µM (inactive) | > 100 µM (inactive) | 93.5 µM (inactive) |  | > 100 µM (inactive) | > 100 µM (inactive) | > 100 µM (inactive) | > 100 µM (inactive) | 51.6 µM (inactive) | > 100 µM (inactive)
7 | CC1(C)C2CCC(CN)(C2)C1N (stereo not given) | 4.49 µM (inactive) | > 54.5 µM (inactive) | > 100 µM (inactive) | > 100 µM (inactive) | > 100 µM (inactive) | > 100 µM (inactive) | > 100 µM (inactive) | > 100 µM (inactive) | > 100 µM (inactive) | > 100 µM (inactive) | > 100 µM (inactive) | > 100 µM (inactive) | > 100 µM (inactive) |  | > 100 µM (inactive) | > 100 µM (inactive) | > 100 µM (inactive) | > 100 µM (inactive) | > 100 µM (inactive) | > 100 µM (inactive)
8 | CCCCC(/C=C\COC1CCCCO1)=C/C(=O)OCC (stereo not given) | 98.6 µM (inactive) | 48.8 µM (inactive) | 55.7 µM (inactive) | > 100 µM (inactive) | > 100 µM (inactive) | > 100 µM (inactive) | 37 µM (inactive) | 61.2 µM (inactive) | > 100 µM (inactive) | > 100 µM (inactive) | > 100 µM (inactive) | > 100 µM (inactive) | > 100 µM (inactive) |  | 91.6 µM (inactive) | > 100 µM (inactive) | > 100 µM (inactive) | > 100 µM (inactive) | 63.1 µM (inactive) | > 100 µM (inactive)
9 | COc1cc(Cl)c2c3c(c(C(=O)c4ccccc4)oc13)CCC2 | > 100 µM (inactive) | > 100 µM (inactive) | > 100 µM (inactive) |  |  |  | > 100 µM (inactive) | > 100 µM (inactive) | > 100 µM (inactive) |  | > 100 µM (inactive) |  | > 100 µM (inactive) | > 100 µM (inactive) | > 100 µM (inactive) | > 100 µM (inactive) |  |  |  | 
10 | NC(=O)C1=NNc2ccccc2C(=O)N1c1ccccc1 | > 100 µM (inactive) | 14.5 µM (inactive) | > 100 µM (inactive) | > 100 µM (inactive) | > 100 µM (inactive) | > 100 µM (inactive) | > 100 µM (inactive) | > 100 µM (inactive) | > 100 µM (inactive) | > 100 µM (inactive) | > 100 µM (inactive) | > 100 µM (inactive) | > 100 µM (inactive) |  | > 100 µM (inactive) | > 100 µM (inactive) | > 100 µM (inactive) | > 100 µM (inactive) | > 100 µM (inactive) | > 100 µM (inactive)
11 | CN1CC=C(OP(=O)(NCc2ccccc2)N(CCCl)CCCl)CC1 (stereo not given) | > 100 µM (inactive) | 89.3 µM (inactive) | > 100 µM (inactive) | > 100 µM (inactive) | > 100 µM (inactive) | > 100 µM (inactive) | > 100 µM (inactive) | > 100 µM (inactive) | 95.3 µM (inactive) | > 100 µM (inactive) | > 100 µM (inactive) | > 100 µM (inactive) | > 100 µM (inactive) |  | > 100 µM (inactive) | > 100 µM (inactive) | > 100 µM (inactive) | > 100 µM (inactive) | > 100 µM (inactive) | > 100 µM (inactive)
12 | C=Cc1ccccc1C1C(C(=O)OCC)=C(C)N=C2OC(C(=O)OC)C(=O)N21 (stereo not given) | > 100 µM (inactive) | > 100 µM (inactive) | > 100 µM (inactive) | > 100 µM (inactive) | > 100 µM (inactive) | > 100 µM (inactive) | > 100 µM (inactive) | > 100 µM (inactive) | > 100 µM (inactive) | > 100 µM (inactive) | > 100 µM (inactive) | > 100 µM (inactive) | > 100 µM (inactive) |  | > 100 µM (inactive) | > 100 µM (inactive) | > 100 µM (inactive) | > 100 µM (inactive) | > 100 µM (inactive) | > 100 µM (inactive)

Source: ChEMBL document CHEMBL1201862, “PubChem BioAssay data set” (2004)
